According to paper PMC7090077, “Developing a highly efficient hydroxytyrosol whole-cell catalyst by de-bottlenecking rate-limiting steps” (Nature Communications, 2020):
pEC50, pKd: −log10 of the molar value. One block for each compound: values may come before it.

How the values were obtained:
[1] = biological target: T1, HpaBC (Escherichia coli, UniProt Q57160); assay: specific activity, product formation by HPLC; format: biochemical; conditions: wild-type
T1 construct: gene hpaB; HpaB and HpaC purified on Ni-NTA; two-component flavin-dependent monooxygenase; with 4-hydroxyphenylacetate 3-monooxygenase reductase component
T1 sequence (Q57160 1-520): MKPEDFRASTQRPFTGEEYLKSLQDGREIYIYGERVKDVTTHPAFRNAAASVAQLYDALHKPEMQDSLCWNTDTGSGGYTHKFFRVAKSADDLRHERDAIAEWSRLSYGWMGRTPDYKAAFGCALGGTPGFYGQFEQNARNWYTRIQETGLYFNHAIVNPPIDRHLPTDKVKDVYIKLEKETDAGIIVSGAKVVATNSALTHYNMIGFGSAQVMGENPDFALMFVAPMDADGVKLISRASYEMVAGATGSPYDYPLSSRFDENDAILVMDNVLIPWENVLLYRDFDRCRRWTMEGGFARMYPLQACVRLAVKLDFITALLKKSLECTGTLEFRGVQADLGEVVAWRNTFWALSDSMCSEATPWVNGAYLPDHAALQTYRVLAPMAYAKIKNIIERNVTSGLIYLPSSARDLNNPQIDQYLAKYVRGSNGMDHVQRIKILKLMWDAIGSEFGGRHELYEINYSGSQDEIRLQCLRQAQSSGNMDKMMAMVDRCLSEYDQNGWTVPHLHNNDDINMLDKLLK

[2] = biological target: T2, VanR (Corynebacterium glutamicum, UniProt Q8NN31, R148L/Y103L/Y168M); assay: RFP reporter induction in E. coli BW25113 with plasmid pVanR; format: cell-based
T2 construct: gene Cgl2382; full length; GST fusion from pGEX-6p-1 in E. coli BL21(DE3), GST tag cleaved with PreScission protease; homodimer, ligand pocket at subunit interface

[3] = biological target: T3, VanR (Corynebacterium glutamicum, UniProt Q8NN31); assay: isothermal titration calorimetry; format: binding
T3 construct: gene Cgl2382; full length; GST fusion from pGEX-6p-1 in E. coli BL21(DE3), GST tag cleaved with PreScission protease; homodimer, ligand pocket at subunit interface
T3 sequence (Q8NN31 entry or part of it): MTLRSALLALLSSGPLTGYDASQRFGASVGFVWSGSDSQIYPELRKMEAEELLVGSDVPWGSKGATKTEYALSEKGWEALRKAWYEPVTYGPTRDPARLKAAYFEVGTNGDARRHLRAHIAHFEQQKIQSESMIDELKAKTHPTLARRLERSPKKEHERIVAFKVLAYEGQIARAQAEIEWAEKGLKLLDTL

T2 sequence (Q8NN31 entry or part of it Y103L/R148L/Y168M): as the sequence (Q8NN31 entry or part of it) above, with Y103L, R148L, Y168M counted along it

SMILES: O=C(O)Cc1ccc(O)cc1 [4-hydroxyphenylacetate]
specific activity [1]: the hydroxylation activity of these HpaBC mutants on the original substrate 4-HPA reduced considerably

pEC50 [2]: ~3.30
SMILES: OCCc1ccc(O)c(O)c1 [hydroxytyrosol]

pKd [3]: 5.16
SMILES: COc1cc(C(=O)O)ccc1O [vanillic acid]
